The values below come from PubChem BioAssay AID1996.

In brackets after ≈: the same amount, converted by molar mass.

The conditions of the data set: buffer; pH 7.4; 200.0 µM.
With `CC1Cc2ccccc2N1C(=O)COC(=O)c1ccc([N+](=O)[O-])o1` (stereo unspecified), the kinetic solubility (in general, the concentration staying in solution when a stock, usually in DMSO, is diluted into the medium) was above 49.5 µg/mL.

Consider `CCCC(=O)C1=C(O)C(C(=O)OC)C(C)(C)CC1=NCCc1ccccc1` (stereo unspecified), for which the solubility (kinetic) turned out to be 53.4 µg/mL (≈ 144 µM).

In turn, `CCOC(=O)N1CCN(Cc2nc(-c3cccs3)no2)CC1` yielded a solubility (kinetic) of 44 µg/mL (≈ 136 µM).

`NC(=O)COC(=O)c1ccc(-c2ccccc2)cc1` came in with a kinetic solubility of 19.1 µg/mL (≈ 74.8 µM).

In turn, `O=C(CNS(=O)(=O)c1ccccc1)N1CCCC1` came in with a kinetic solubility above 40.2 µg/mL.

On to `O/N=C\c1ccccc1Oc1ccc(F)cc1`, for which the kinetic solubility stood at 32.3 µg/mL (≈ 140 µM).

The compound `CCCOC1CCCN(Cc2nc(-c3cnccn3)no2)C1` (stereo unspecified) had a solubility (kinetic) of 41.3 µg/mL (≈ 136 µM).

In turn, `O=C1/C(=C\c2ccc(Cl)cc2Cl)N2CCC1CC2` displayed a kinetic solubility of 8.9 µg/mL (≈ 31.5 µM).

On to `COc1ccccc1C(=O)COC(=O)C(NC(=O)Cc1ccccc1)C(C)C` (stereo unspecified), for which the kinetic solubility amounted to 56.5 µg/mL (≈ 147 µM).

`O=C(COC(=O)c1ccccc1Nc1ccccc1F)c1ccccc1`: the solubility (kinetic) is below 0.7 µg/mL.

In turn, `Cc1ccccc1C(=O)Nc1ccc(N2CCN(C)CC2)nc1` displayed a solubility (kinetic) above 46.6 µg/mL.

On to `CCn1c(=O)n(CC)c2cc(NC(=O)c3ccccc3Cl)ccc21`, for which the kinetic solubility turned out to be 50.4 µg/mL (≈ 147 µM).

For the compound `O=C(CCS(=O)(=O)c1ccccc1)NC1CCCC1`, the kinetic solubility is above 42.2 µg/mL.

Turning to `CCCNC(=O)NC(=O)c1cnccc1C(F)(F)F`, the kinetic solubility stood at 34.8 µg/mL (≈ 126 µM).

`CN(CC(O)CN1CCOCC1)S(=O)(=O)[O-].[Na+]` (stereo unspecified) came in with a kinetic solubility above 41.4 µg/mL.

Consider `O=C(NCc1cccnc1)Nc1cccc(NC(=O)NCc2cccnc2)c1F`, for which the solubility (kinetic) was found to be 7.6 µg/mL (≈ 19.3 µM).

The compound `CC1Oc2ccccc2N(CC(=O)NCCN2CCOCC2)C1=O` (stereo unspecified) displayed a kinetic solubility above 50 µg/mL.

In turn, `CCOc1cc(/C=C/C(=O)OCC(=O)NCC2CCCO2)cc(Cl)c1OC` (stereo unspecified) gave a solubility (kinetic) of 52.7 µg/mL (≈ 132 µM).

The compound `CCCNC(=O)c1cc(-c2ccc3c(c2)OCO3)on1` came in with a solubility (kinetic) of 2.9 µg/mL (≈ 10.6 µM).

With `Cc1c(C)n(Cc2ccccc2)c2ccc(C(=O)O)cc12`, the kinetic solubility was above 41.9 µg/mL.

For `COc1cc(OC)cc(C(=O)N[C@H](C(=O)OCC(=O)c2c[nH]c3ccccc23)C(C)C)c1`, the kinetic solubility is 3.8 µg/mL (≈ 8.67 µM).

Consider `C=CCc1c(C)c(C#N)c2nc3ccccc3n2c1N1CCCCC1`, for which the kinetic solubility is below 0.2 µg/mL.

`Cc1cc(SCC(=O)N2CCCC2=O)nc2c(C)cccc12` showed a kinetic solubility of 2.3 µg/mL (≈ 7.32 µM).

As to `COc1ccc(CNC(=O)c2sccc2C)cc1`, the kinetic solubility was above 39.2 µg/mL.

Consider `CC(NC(=O)COC(=O)CCC(=O)c1ccc(Cl)cc1)c1ccccc1` (stereo unspecified), for which the kinetic solubility is above 56.1 µg/mL.

In the case of `Cc1[nH]c2ccccc2c1C(c1ccncc1)N1CCCCC1` (stereo unspecified), the kinetic solubility is above 45.8 µg/mL.

For the compound `CC1Cc2ccccc2N1C(=O)c1ccc(F)c(S(=O)(=O)N2CCOCC2)c1` (stereo unspecified), the solubility (kinetic) was determined as 50.3 µg/mL (≈ 124 µM).

`CS(=O)(=O)N(CC(=O)N1CCCC1)c1ccc(Cl)cc1` showed a solubility (kinetic) above 47.5 µg/mL.

Regarding `COC(=O)CNc1nc(Cl)nc(NC2CCCCC2)n1`, the solubility (kinetic) came to 27.7 µg/mL (≈ 92.4 µM).

In turn, `CC(C)(C)c1ccc(OC(=O)N2CCOCC2)cc1` yielded a kinetic solubility of 31.9 µg/mL (≈ 121 µM).

`CCc1cc2cc(C)cc(C)c2nc1Cl`: the solubility (kinetic) was below 0.5 µg/mL.

Turning to `OCCNCCCOc1cc(Cl)ccc1Cl`, the solubility (kinetic) is 31.9 µg/mL (≈ 121 µM).

The compound `O=C1NC(=O)c2cc3ccccc3cc21` displayed a kinetic solubility of 10.6 µg/mL (≈ 53.8 µM).

The compound `S=C1NCN(Cc2ccccc2)CN1C1CCCCC1` yielded a kinetic solubility of 4.5 µg/mL (≈ 15.5 µM).

`Cc1nc2ccc([N+](=O)[O-])cc2c(=O)n1Cc1ccc([N+](=O)[O-])cc1` came in with a kinetic solubility of 2.5 µg/mL (≈ 7.35 µM).

Consider `O=C(NCc1cnn(-c2ccccc2)c1)C1CCC(=O)N(C2CC2)C1` (stereo unspecified), for which the solubility (kinetic) was above 50.8 µg/mL.

The compound `COC(=O)C(C(C)C)N1CCc2c(C)nc3c(C#N)cnn3c21` (stereo unspecified) returned a kinetic solubility above 47 µg/mL.

The compound `COc1ccc(/C=C/C(=O)OCc2cccc([N+](=O)[O-])c2)cc1` returned a solubility (kinetic) below 0.7 µg/mL.

`O=Cc1cn(CCOc2ccccc2F)c2ccccc12`: the solubility (kinetic) turned out to be 12.8 µg/mL (≈ 45.2 µM).

Turning to `Cc1cc(Nc2cccc([N+](=O)[O-])c2)c2cccc(C)c2n1.Cl`, the kinetic solubility was found to be 5.5 µg/mL.

In the case of `Cn1nc(C(=O)OCC(=O)NCCc2ccccc2)c2ccccc2c1=O`, the solubility (kinetic) was above 54.8 µg/mL.

Turning to `COc1ccc(C(C)(C)C)cc1NC(=O)COC(=O)CN1C(=O)NC2(CCCCC2C)C1=O` (stereo unspecified), the solubility (kinetic) came out at 38 µg/mL (≈ 82.7 µM).

On to `CC1CCN(C(=O)CN(Cc2ccc(Cl)cc2)S(C)(=O)=O)CC1`, for which the kinetic solubility worked out at 52.8 µg/mL (≈ 147 µM).

`COc1cc2c(cc1OC)CN(C(=O)c1ccc([N+](=O)[O-])o1)CC2`: the kinetic solubility was above 49.8 µg/mL.

For `O=C(NCCc1ccc(Cl)cc1)C1CCCO1` (stereo unspecified), the kinetic solubility was above 38.1 µg/mL.

In the case of `Cc1ccc(S(=O)(=O)/N=C(/c2ccc(F)cc2)N(C)C)cc1`, the kinetic solubility is above 48.1 µg/mL.

As to `Cc1ccccc1NC(=O)C(Cc1ccccc1)n1cccc1` (stereo unspecified), the kinetic solubility is 7.4 µg/mL (≈ 24.3 µM).

In turn, `CC(=O)c1ccc(OC(=O)CN2C(=O)c3ccccc3C2=O)cc1` returned a kinetic solubility above 48.5 µg/mL.

Turning to `OCCNCC(O)CN1c2ccccc2Sc2ccccc21` (stereo unspecified), the solubility (kinetic) is above 47.5 µg/mL.

`COCCOC(=O)C(CC(=O)O)NCc1ccco1` (stereo unspecified) registered a solubility (kinetic) above 40.7 µg/mL.

In the case of `CN1CCN(c2ccccc2NC(=O)c2cccc([N+](=O)[O-])c2)CC1`, the solubility (kinetic) is above 51.1 µg/mL.
